# Experimental data taken from PubChem BioAssay AID2060493 (Molecular Pharmacology Branch, DTP, NCI, 2025).
# pIC50: −log10 of the molar value.
# Test system: 616215-338-R-J1-PDC tumor spheroids, viability
# Assay: Anticancer human tumor 616215-338-R-J1-PDC patient-derived colon adenocarcinoma cell line growth inhibition [GQUAD]
# Conditions: spheroids with HUVEC and MSC; for pIC50: curve of first compound; for viability, T/C: stronger effect = lower value
# In short: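 Multi-cell-type spheroids of tumor cells with HUVEC and mesenchymal stem cells, treated with drug combinations. Concentrations descend in half-log steps from near clinical Cmax, or from 10 microM where Cmax is unknown; viability read-out.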
# [1] = second compound 0.0316 µM, first compound 0.0316 µM
# [2] = second compound 0.0316 µM, first compound 0.316 µM
# [3] = second compound 0.1 µM, first compound 0.0316 µM
# [4] = second compound 0.1 µM, first compound 0.316 µM
# [5] = second compound 0.316 µM, first compound 0.0316 µM
# [6] = second compound 0.316 µM, first compound 0.316 µM
# [7] = second compound 1 µM, first compound 0.0316 µM
# [8] = second compound 1 µM, first compound 0.316 µM
# [9] = second compound 3.16 µM, first compound 0.0316 µM
# [10] = second compound 3.16 µM, first compound 0.316 µM
# [11] = second compound 10 µM, first compound 0.0316 µM
# [12] = second compound 10 µM, first compound 0.316 µM
# 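Further: spheroids exposed to agents for 7 days before readout.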
# 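Wherever viability, T/C is given: percent viability relative to DMSO vehicle control wells taken as 100%.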
structure (smiles),measurement,setting,value
Cn1ncnc1[C@H]1c2n[nH]c(=O)c3cc(F)cc(c23)N[C@@H]1c1ccc(F)cc1 + Cc1cnc(CNC(=O)c2c(=O)c3ccc(N4CCCN(C)CC4)nc3n3c2sc2ccccc23)cn1,pIC50,second compound 0.0316 µM,< 6.50
same,pIC50,second compound 0.1 µM,6.63
same,pIC50,second compound 0.316 µM,> 9.00
same,pIC50,second compound 1 µM,> 9.00
same,pIC50,second compound 3.16 µM,> 9.00
same,pIC50,second compound 10 µM,> 9.00
same,"viability, T/C","second compound 0.0316 µM, first compound 0.000999 µM",102%
same,"viability, T/C","second compound 0.0316 µM, first compound 0.00316 µM",99.4%
same,"viability, T/C","second compound 0.0316 µM, first compound 0.00999 µM",104%
same,"viability, T/C",[1],94.8%
same,"viability, T/C","second compound 0.0316 µM, first compound 0.0999 µM",86.5%
same,"viability, T/C",[2],77.9%
same,"viability, T/C","second compound 0.1 µM, first compound 0.000999 µM",68.2%
same,"viability, T/C","second compound 0.1 µM, first compound 0.00316 µM",75.2%
same,"viability, T/C","second compound 0.1 µM, first compound 0.00999 µM",77.9%
same,"viability, T/C",[3],56.5%
same,"viability, T/C","second compound 0.1 µM, first compound 0.0999 µM",58.5%
same,"viability, T/C",[4],48.1%
same,"viability, T/C","second compound 0.316 µM, first compound 0.000999 µM",40.9%
same,"viability, T/C","second compound 0.316 µM, first compound 0.00316 µM",53.4%
same,"viability, T/C","second compound 0.316 µM, first compound 0.00999 µM",44.3%
same,"viability, T/C",[5],44.4%
same,"viability, T/C","second compound 0.316 µM, first compound 0.0999 µM",48.4%
same,"viability, T/C",[6],29.5%
same,"viability, T/C","second compound 1 µM, first compound 0.000999 µM",28.2%
same,"viability, T/C","second compound 1 µM, first compound 0.00316 µM",34.9%
same,"viability, T/C","second compound 1 µM, first compound 0.00999 µM",27.3%
same,"viability, T/C",[7],44.1%
same,"viability, T/C","second compound 1 µM, first compound 0.0999 µM",33.2%
same,"viability, T/C",[8],33.2%
same,"viability, T/C","second compound 3.16 µM, first compound 0.000999 µM",34.9%
same,"viability, T/C","second compound 3.16 µM, first compound 0.00316 µM",27.5%
same,"viability, T/C","second compound 3.16 µM, first compound 0.00999 µM",26.4%
same,"viability, T/C",[9],30.6%
same,"viability, T/C","second compound 3.16 µM, first compound 0.0999 µM",29%
same,"viability, T/C",[10],33.3%
same,"viability, T/C","second compound 10 µM, first compound 0.000999 µM",31.2%
same,"viability, T/C","second compound 10 µM, first compound 0.00316 µM",27.4%
same,"viability, T/C","second compound 10 µM, first compound 0.00999 µM",30.1%
same,"viability, T/C",[11],35.5%
same,"viability, T/C","second compound 10 µM, first compound 0.0999 µM",27.4%
same,"viability, T/C",[12],30.2%
C#Cc1c(F)ccc2cc(O)cc(-c3ncc4c(N5CC6CCC(C5)N6)nc(OCC56CCCN5CC(F)C6)nc4c3F)c12 (centres undefined) + CN(C)c1ccc(Nc2c3ccc(NC(=O)CCN4CCCC4)cc3nc3cc(NC(=O)CCN4CCCC4)ccc23)cc1,pIC50,second compound 0.0316 µM,< 5.00
same,pIC50,second compound 0.1 µM,5.04
same,pIC50,second compound 0.316 µM,< 5.00
same,pIC50,second compound 1 µM,5.04
same,pIC50,second compound 3.16 µM,5.07
same,pIC50,second compound 10 µM,5.52
same,"viability, T/C",[1],91.1%
same,"viability, T/C","second compound 0.0316 µM, first compound 0.1 µM",103%
same,"viability, T/C",[2],102%
same,"viability, T/C","second compound 0.0316 µM, first compound 1 µM",113%
same,"viability, T/C","second compound 0.0316 µM, first compound 3.16 µM",108%
same,"viability, T/C","second compound 0.0316 µM, first compound 10 µM",61.4%
same,"viability, T/C",[3],103%
same,"viability, T/C","second compound 0.1 µM, first compound 0.1 µM",105%
same,"viability, T/C",[4],111%
same,"viability, T/C","second compound 0.1 µM, first compound 1 µM",111%
same,"viability, T/C","second compound 0.1 µM, first compound 3.16 µM",105%
same,"viability, T/C","second compound 0.1 µM, first compound 10 µM",44.9%
same,"viability, T/C",[5],106%
same,"viability, T/C","second compound 0.316 µM, first compound 0.1 µM",109%
same,"viability, T/C",[6],110%
same,"viability, T/C","second compound 0.316 µM, first compound 1 µM",105%
same,"viability, T/C","second compound 0.316 µM, first compound 3.16 µM",90.4%
same,"viability, T/C","second compound 0.316 µM, first compound 10 µM",64.3%
same,"viability, T/C",[7],109%
same,"viability, T/C","second compound 1 µM, first compound 0.1 µM",100%
same,"viability, T/C",[8],106%
same,"viability, T/C","second compound 1 µM, first compound 1 µM",105%
same,"viability, T/C","second compound 1 µM, first compound 3.16 µM",98%
same,"viability, T/C","second compound 1 µM, first compound 10 µM",46.3%
same,"viability, T/C",[9],109%
same,"viability, T/C","second compound 3.16 µM, first compound 0.1 µM",86.8%
same,"viability, T/C",[10],100%
same,"viability, T/C","second compound 3.16 µM, first compound 1 µM",93.5%
same,"viability, T/C","second compound 3.16 µM, first compound 3.16 µM",106%
same,"viability, T/C","second compound 3.16 µM, first compound 10 µM",42.3%
same,"viability, T/C",[11],99.4%
same,"viability, T/C","second compound 10 µM, first compound 0.1 µM",79.6%
same,"viability, T/C",[12],94.2%
same,"viability, T/C","second compound 10 µM, first compound 1 µM",67.5%
same,"viability, T/C","second compound 10 µM, first compound 3.16 µM",50.1%
same,"viability, T/C","second compound 10 µM, first compound 10 µM",22.4%
